Experiments:
PrPres = PrPres (Mesocricetus auratus, UniProt P04273); conditions: for PrPres bound to resin in five 10 ml columns in series / removal of PrPres: 300 ml RBCC spiked with 0.1% scrapie hamster brain homogenate, Western blot of bead eluates; for Resin needed to remove all PrPres to the limit of detection of the Western blot: 300 ml spiked RBCC, 3 columns of 10 ml
haPrPc and haPrPsc = haPrPc and haPrPsc (Mesocricetus auratus, UniProt P04273); conditions: 3-mer library, hamster brain homogenates
haPrPc and haPrPsc, sequence (P04273 23-231 limits assumed): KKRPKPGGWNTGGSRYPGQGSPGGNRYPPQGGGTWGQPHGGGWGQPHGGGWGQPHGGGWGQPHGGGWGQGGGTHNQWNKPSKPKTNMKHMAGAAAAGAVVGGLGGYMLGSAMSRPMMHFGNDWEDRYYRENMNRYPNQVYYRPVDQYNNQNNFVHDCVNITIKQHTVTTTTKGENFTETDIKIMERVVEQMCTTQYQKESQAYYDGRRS

PrPc = PrPc (Mesocricetus auratus, UniProt P04273); conditions: 1% normal hamster brain homogenate, 0.5 ml column
PrPc, sequence (P04273 23-231 limits assumed): as above

PrPres, sequence (P04273 23-231 limits assumed): as above

| Substance | PrPres bound to resin in five 10 ml columns in series / removal of PrPres (PrPres) | Preferential binding of PrPsc over PrPc (haPrPc and haPrPsc) | Resin needed to remove all PrPres to the limit of detection of the Western blot (PrPres) | Location of bound PrPc on chopped resin beads (PrPc) |
| --- | --- | --- | --- | --- |
| (D)ES(na)PRQ-EACA [SEQ ID NO:226] | decreasing amounts of PrPres on columns 1 through 3 |  |  |  |
| DVR [SEQ ID NO:114] | remove all of the PrPres to the limit of detection of the Western blot in 3 columns | bind preferentially PrPsc over PrPc | 30 mL | protein bound to the exterior of the beads |
| SYA [SEQ ID NO:108] | remove all of the PrPres to the limit of detection of the Western blot in 3 columns |  | 30 mL |  |
| VQR [SEQ ID NO:111] |  | bind preferentially PrPsc over PrPc |  |  |
| WFVEA [SEQ ID NO:225] | does not bind and remove all of the prion protein to the limit of detection |  |  |  |
| YVHEA [SEQ ID NO:63] | decreasing amounts of PrPres on columns 1 through 3 |  |  |  |

— patent publication US8604161B2 (priority 2002, dated 2013)
